28 molecules from patent US11939320B2, “Modulators of the integrated stress pathway” (Calico Life Sciences LLC, priority 2017, dated 2024) can be followed below.

The experiment relates to HEK293T cells carrying the ATF4 luciferase reporter. Put plainly: ATF4-Luc assay (in vitro model of VWMD). Format: cell-based. The settings on record: Homo sapiens, HEK-293T; HEK293T cells with ATF4 5'-UTR firefly luciferase reporter; 1 μg/mL tunicamycin; 7 hours; One Glo luminescence. As for the experimental part: In order to test exemplary compounds of the invention in a cellular context, a stable VWMD cell line was first constructed. The ATF4 reporter was prepared by fusing the human full-length ATF4 5′-UTR (NCBI Accession No. BC022088.2) in front of the firefly luciferase (FLuc) coding sequence lacking the initiator methionine as described in Sidrauski et al (eLife 2013). The construct was used to produce recombinant retroviruses using standard methods and the resulting viral supernatant was used to transduce HEK293T cells, which were then subsequently selected with puromycin to generate a stable cell line.
HEK293T cells carrying the ATF4 luciferase reporter were plated on polylysine coated 384-well plates (Greiner Bio-one) at 30,000 cells per well. Cells were treated the next day with 1 μg/mL tunicamycin and 200 nM of a compound of Formula (I) for 7 hours. Luminescence was measured using One Glo (Promega) as specified by the manufacturer. Cells were maintained in DMEM with L-glutamine supplemented with 10% heat-inactivated FBS (Gibco) and Antibiotic-Antimycotic solution (Gibco).
Table 2 below summarizes the EC50 data obtained using the ATF4-Luc assay for exemplary compounds of the invention.
On to `O=C(COc1ccc(C(F)(F)F)nc1)N[C@H]1CC[C@H](C(=O)NCc2nc3cc(Cl)ccc3[nH]2)CC1` [Compound 147, (1r,4r)-N-[(5-chloro-1H-benzimidazol-2-yl)methyl]-4-(2-{[6-(trifluoromethyl)pyridin-3-yl]oxy}acetamido)cyclohexane-1-carboxamide], for which the 50% effective concentration (EC50) is > 2 µM.

As to `O=C(COc1ccc2c(c1)OC(F)(F)O2)N[C@H]1CC[C@H](C(=O)NCc2nc3cc(Cl)ccc3[nH]2)CC1` [Compound 148, (1r,4r)-N-[(5-chloro-1H-benzimidazol-2-yl)methyl]-4-{2-[(2,2-difluoro-2H-1,3-benzodioxol-5-yl)oxy]acetamido}cyclohexane-1-carboxamide], the half-maximal effective concentration (EC50) fell in the range of 0.05 to 0.25 µM.

As for `O=C(COc1ccc(F)c(F)c1)N[C@H]1CC[C@H](C(=O)NCc2nc3cc(Cl)ccc3[nH]2)CC1` [Compound 149, (1r,4r)-N-[(5-chloro-1H-benzimidazol-2-yl)methyl]-4-[2-(3,4-difluorophenoxy)acetamido]cyclohexane-1-carboxamide], the concentration for a half-maximal effect (EC50) was 0.05 to 0.25 µM.

Consider `O=C(COc1ccc(Cl)c(F)c1)N[C@H]1CC[C@H](C(=O)NCc2nc3cc(Cl)ccc3[nH]2)CC1` [Compound 150, (1r,4r)-N-[(5-chloro-1H-benzimidazol-2-yl)methyl]-4-[2-(4-chloro-3-fluorophenoxy)acetamido]cyclohexane-1-carboxamide], for which the EC50 was 0.01 to 0.05 µM.

Regarding `O=C(COc1ccc(Cl)c(Cl)c1)N[C@H]1CC[C@H](C(=O)NCc2nc3cc(F)c(F)cc3[nH]2)CC1` [Compound 152, (1r,4r)-4-[2-(3,4-dichlorophenoxy)acetamido]-N-[(5,6-difluoro-1H-benzimidazol-2-yl)methyl]cyclohexane-1-carboxamide], the EC50 is > 2 µM.

`O=C(COc1ccc(Cl)c(F)c1)N[C@H]1CC[C@H](C(=O)NCc2nc3cc(F)c(F)cc3[nH]2)CC1` [Compound 153, (1r,4r)-4-[2-(4-chloro-3-fluorophenoxy)acetamido]-N-[(5,6-difluoro-1H-benzimidazol-2-yl)methyl]cyclohexane-1-carboxamide]: the half-maximal effective concentration (EC50) is > 2 µM.

In the case of `O=C(COc1ccc(F)c(F)c1)N[C@H]1CC[C@H](C(=O)NCc2nc3cc(F)c(F)cc3[nH]2)CC1` [Compound 154, (1r,4r)-N-[(5,6-difluoro-1H-benzimidazol-2-yl)methyl]-4-[2-(3,4-difluorophenoxy)acetamido]cyclohexane-1-carboxamide], the EC50 was > 2 µM.

In the case of `O=C(COc1ccc(Cl)cc1)N[C@H]1CC[C@H](C(=O)NCc2nc3cc(F)c(F)cc3[nH]2)CC1` [Compound 155, (1r,4r)-4-[2-(4-chlorophenoxy)acetamido]-N-[(5,6-difluoro-1H-benzimidazol-2-yl)methyl]cyclohexane-1-carboxamide], the concentration giving a half-maximal response (EC50) was 0.5 to 2 µM.

With `O=C(COc1ccc(Cl)c(F)c1)N[C@@H]1CC[C@@H](C(=O)NCc2nc3cc(F)c(F)cc3[nH]2)OC1` [Compound 156, (2S,5R)-5-[2-(4-chloro-3-fluorophenoxy)acetamido]-N-[(5,6-difluoro-1H-benzimidazol-2-yl)methyl]oxane-2-carboxamide], the concentration for a half-maximal effect (EC50) was in the range of 0.05 to 0.25 µM.

Consider `O=C(COc1ccc(Cl)c(F)c1)N[C@@H]1CC[C@@H](C(=O)NCc2ccc(OC(F)(F)F)cc2)OC1` [Compound 157, (2S,5R)-5-[2-(4-chloro-3-fluorophenoxy)acetamido]-N-{[4-(trifluoromethoxy)phenyl]methyl}oxane-2-carboxamide], for which the EC50 lay in the range of 0.05 to 0.25 µM.

In the case of `O=C(COc1ccc(Cl)c(F)c1)N[C@@H]1CC[C@@H](C(=O)NCc2ccc(C(F)(F)F)cc2)OC1` [Compound 158, (2S,5R)-5-[2-(4-chloro-3-fluorophenoxy)acetamido]-N-{[4-(trifluoromethyl)phenyl]methyl}oxane-2-carboxamide], the concentration for a half-maximal effect (EC50) was 0.05 to 0.25 µM.

Take `O=C(COc1ccc(Cl)c(F)c1)N[C@H]1CC[C@H](C(=O)NCc2ccc(C(F)(F)F)cn2)OC1` [Compound 159, (2R,5S)-5-[2-(4-chloro-3-fluorophenoxy)acetamido]-N-{[5-(trifluoromethyl)pyridin-2-yl]methyl}oxane-2-carboxamide]: the EC50 is 0.01 to 0.05 µM.

For `O=C(COc1ccc(Cl)c(F)c1)N[C@@H]1CC[C@@H](C(=O)N2CC(c3ccc(Cl)cc3)C2)OC1` [Compound 160, 2-(4-chloro-3-fluorophenoxy)-N-{(3R,6S)-6-[3-(4-chlorophenyl)azetidine-1-carbonyl]oxan-3-yl}acetamide], the concentration giving a half-maximal response (EC50) was 0.01 to 0.05 µM.

Consider `O=C(COc1ccc(Cl)c(F)c1)NC1CCC(C(=O)NCc2ccc(C(F)(F)F)cn2)OC1` (stereo not shown) [Compound 166, 5-[2-(4-chloro-3-fluorophenoxy)acetamido]-N-{[5-(trifluoromethyl)pyridin-2-yl]methyl}oxane-2-carboxamide], for which the EC50 was > 2 µM.

For `O=C(COc1ccc(Cl)c(F)c1)N[C@@H]1CC[C@@H](C(=O)NCc2ccc3c(c2)OC(F)(F)O3)OC1` [Compound 167, (2S,5R)-5-[2-(4-chloro-3-fluorophenoxy)acetamido]-N-[(2,2-difluoro-2H-1,3-benzodioxol-5-yl)methyl]oxane-2-carboxamide], the EC50 lay within 0.05 to 0.25 µM.

For the molecule `O=C(COc1ccc(Cl)c(F)c1)N[C@H]1C[C@H](C(=O)Nc2ccc(OC(F)F)nc2)C1` [Compound 168, (1r,3r)-3-[2-(4-chloro-3-fluorophenoxy)acetamido]-N-[6-(difluoromethoxy)pyridin-3-yl]cyclobutane-1-carboxamide], the EC50 is > 2 µM.

As for `O=C(COc1ccc(Cl)c(F)c1)N[C@H]1C[C@H](C(=O)NCc2ccc(Cl)cc2)C1` [Compound 169, (1r,3r)-3-[2-(4-chloro-3-fluorophenoxy)acetamido]-N-[(4-chlorophenyl)methyl]cyclobutane-1-carboxamide], the half-maximal effective concentration (EC50) was > 2 µM.

As for `O=C(COc1ccc(Cl)c(F)c1)N[C@H]1CC[C@H](C(=O)NCc2cc(OC3CCC3)ccn2)CC1` [Compound 170, (1r,4r)-4-[2-(4-chloro-3-fluorophenoxy)acetamido]-N-{[4-(cyclobutyloxy)pyridin-2-yl]methyl}cyclohexane-1-carboxamide], the EC50 was > 2 µM.

For `O=C(COc1ccc(Cl)c(F)c1)N[C@H]1CC[C@H](C(=O)NCc2cc(C(F)(F)F)ccn2)CC1` [Compound 171, (1r,4r)-4-[2-(4-chloro-3-fluorophenoxy)acetamido]-N-{[4-(trifluoromethyl)pyridin-2-yl]methyl}cyclohexane-1-carboxamide], the 50% effective concentration (EC50) is 0.05 to 0.25 µM.

`NC(=O)c1ccc(CNC(=O)[C@H]2CC[C@H](NC(=O)COc3ccc(Cl)c(F)c3)CC2)nc1` [Compound 172, 6-[({(1r,4r)-4-[2-(4-chloro-3-fluorophenoxy)acetamido]cyclohexane-1-carbonyl}amino)methyl]pyridine-3-carboxamide]: the EC50 is > 2 µM.

Turning to `N#Cc1ccc(CNC(=O)[C@H]2CC[C@H](NC(=O)COc3ccc(Cl)c(Cl)c3)CC2)nc1` [Compound 173, (1r,4r)-N-[(5-cyanopyridin-2-yl)methyl]-4-[2-(3,4-dichlorophenoxy)acetamido]cyclohexane-1-carboxamide], the 50% effective concentration (EC50) lay in the range of 0.05 to 0.25 µM.

As to `O=C(COc1ccc(Cl)c(Cl)c1)N[C@@H]1CC[C@@H](C(=O)NCc2ccc(C(F)(F)F)cn2)OC1` [Compound 174, (2S,5R)-5-[2-(3,4-dichlorophenoxy)acetamido]-N-{[5-(trifluoromethyl)pyridin-2-yl]methyl}oxane-2-carboxamide], the EC50 is 0.01 to 0.05 µM.

For `O=C(COc1ccc(Cl)c(Cl)c1)N[C@H]1CC[C@H](C(=O)NCc2ccc(Cl)cn2)CC1` [Compound 175, (1r,4r)-N-[(5-chloropyridin-2-yl)methyl]-4-[2-(3,4-dichlorophenoxy)acetamido]cyclohexane-1-carboxamide], the EC50 fell in the range of 0.05 to 0.25 µM.

As for `O=C(COc1ccc(Cl)c(F)c1)N[C@H]1CC[C@H](C(=O)NCc2ccc(Cl)cn2)CC1` [Compound 176, (1r,4r)-4-[2-(4-chloro-3-fluorophenoxy)acetamido]-N-[(5-chloropyridin-2-yl)methyl]cyclohexane-1-carboxamide], the EC50 was > 2 µM.

As to `O=C(COc1ccc(Cl)c(F)c1)N[C@H]1CC[C@H](C(=O)Nc2ccc(OC(F)(F)F)nc2)CC1` [Compound 177, (1r,4r)-4-[2-(4-chloro-3-fluorophenoxy)acetamido]-N-[6-(trifluoromethoxy)pyridin-3-yl]cyclohexane-1-carboxamide], the EC50 is < 0.01 µM.

Regarding `O=C(COc1ccc(Cl)c(F)c1)N[C@H]1CC[C@H](C(=O)NCCOc2ccc(Cl)c(F)c2)CC1` [Compound 178, (1r,4r)-4-[2-(4-chloro-3-fluorophenoxy)acetamido]-N-[2-(4-chloro-3-fluorophenoxy)ethyl]cyclohexane-1-carboxamide], the EC50 was in the range of 0.01 to 0.05 µM.

As to `O=C(COc1ccc(Cl)c(F)c1)N[C@H]1CC[C@H](C(=O)NCc2ccc3c(c2)OC(F)(F)O3)CC1` [Compound 179, (1r,4r)-4-[2-(4-chloro-3-fluorophenoxy)acetamido]-N-[(2,2-difluoro-2H-1,3-benzodioxol-5-yl)methyl]cyclohexane-1-carboxamide], the EC50 lay within 0.01 to 0.05 µM.

Take `O=C(COc1ccc(Cl)c(Cl)c1)N[C@H]1CC[C@H](C(=O)N(CCO)Cc2ccc(Cl)c(F)c2)CC1` [Compound 180, (1r,4r)-N-[(4-chloro-3-fluorophenyl)methyl]-4-[2-(3,4-dichlorophenoxy)acetamido]-N-(2-hydroxyethyl)cyclohexane-1-carboxamide]: the EC50 was in the range of 0.5 to 2 µM.
